Source: patent US5968933A, “DNA-targeted alkylating agents” (Auckland Division Cancer Society of New Zealand Inc., priority 1994, dated 1999)
“Also recorded” adds a separate entry of the source. Read-outs that look alike come from different tables or passages of the source.

Legend:
[1] = system: AA8 cells; assay: Growth inhibition in vitro, AA8; format: cell-based, Chinese hamster
Description: (§1) Representative examples of compounds of the invention were tested for biological activity against tumors. Compounds 1 to 6 and 14 to 21, prepared as described above, were tested for their ability to inhibit growth in vitro of cells of the wild-type murine leukaemia cell line P388, and the cell line AA8 which is derived from Chinese hamster ovary cells. For each compound, the IC50, ie. the concentration of compound which inhibited cell growth in treated cultures to 50% of that of controls, was determined, using means of three determinations. In addition, a hypersensitivity factor was determined by comparing activity of the compounds against AA8 cells to activity against UV4. The latter cell line is deficient in aspects of the excision repair pathway for removing DNA adducts, and is hypersensitive to DNA-alkylating agents, especially interstrand crosslinking agents. Previous work has shown that the ratio of IC50 s determined in the wild-type AA8 and mutant UV4 lines (the hypersensitivity factor HF) is a determinant of the mode of cell killing by alkylating agents (Palmer, B. D. et al, J. Med. Chem., 1990 33 112-121; Wilson, W. R. et al, J. Med. Chem., 1989 32 31-38). Compounds with HFs of ca. 1 are unlikely to kill cells via DNA alkylation events. Compounds which show high HF values are likely to form bulky adducts or cross-links,with the latter being especially likely for compounds showing the highest HF values (>ca. 25) (Wilson et al, op. cit.).
(§2) Cell lines were maintained in exponential growth phase by subculturing in RPMI 1640 (P338) or Alpha MEM (AA8, UV4) containing 10% fetal calf serum, as previously described (Palmer et al, op.cit.; Baguley, B. C. and Wilson, W. R., Eur. J. Cancer Clin. Oncol., 1987 23 607-613). IC50 values were determined using log-phase cultures in 96-well microculture plates, and were calculated as the nominal drug concentration required to reduce the cell density to 50% of control values, using 8 control cultures on each microplate. For P388 cultures, drug was present throughout the growth period (72 h), and final cell densities were determined using a minor modification of the MTT method of Mossman (Mossman, T., J. Immunol. Methods, 1983 65 55-63). For AA8 and UV4 cultures, drug exposure was terminated after 18 h by washing three times with fresh medium. Cultures were then grown for a further 72 h before determining cell density by staining with methylene blue (Finlay, G. J. et al, Anal. Biochem., 1984 139 272-277).

[2] = system: S. typhimurium TA102; assay: Bacterial mutagenicity, plate incorporation assay, TA102; details: mean ± SD
[3] = system: AA8 and UV4 cells; assay: Hypersensitivity factor (AA8/UV4 IC50 ratio); format: cell-based, Chinese hamster; details: ratio of IC50s AA8/UV4
Description: as §1, §2

[4] = system: P338 murine leukaemia; format: in vivo, mice; details: for % Increase in lifespan: single i.p. dose 24 h after tumour inoculation, at optimal dose (mg/kg: 1 30; 2 30; 3 13.3; 4 3.9; 5 5.9; 6 8.9); for in vivo antitumour activity: P388, single-dose protocol
[5] = system: P388 cells; assay: Growth inhibition in vitro, P388 leukaemia; format: cell-based, murine
Description: as §1, §2

[6] = system: S. typhimurium TA98; assay: Bacterial mutagenicity, plate incorporation assay, TA98; details: mean ± SD
[7] = system: S. typhimurium TA100; assay: Bacterial mutagenicity, plate incorporation assay, TA100; details: for reversion colonies, TA100: mean ± SD
[8] = system: calf thymus DNA; assay: Reversible DNA binding by spectrophotometric Scatchard analysis; details: 20° C., 0.01M HEPES buffer, pH 7.00
[9] = system: calf thymus DNA; assay: Rate of alkylation of calf thymus DNA by increase in DNA-bound fluorescence; format: biochemical; parameters: unit not given here
[10] = system: linearized pSV2gpt DNA; assay: DNA crosslinking assay (agarose gel electrophoresis of linearized plasmid); format: biochemical; details: 2 h at 30° C., TE-80 buffer pH 8
Description: The ability of representative compounds of the invention to bind to and cross-link DNA was examined. This was carried out by agarose gel electrophoresis of plasmid DNA using linearized pSV2gpt DNA (Tindall, K. R. and Stankowski, L. F.; Mutation Research, 1989 220 241-245) and the method reported by Valu et al, 1990, op.cit. Briefly, linearized pSV2gpt DNA (1 μL of a 1 mg/mL solution) was incubated with drug in TE-80 buffer (10 mM Tris.HCl, 1 mM EDTA at pH 8), shielded from ambient light, for 2 h at 30° C., then denatured by the addition of […] of 1% sodium dodecyl sulfate and 10 μL of 50 mM methylmercury hydroxide and incubated for a further 30 min at 20° C. in the dark. Renaturation of drug-treated DNA samples was carried out by incubation with 2.5 μL of 2-mercaptoethanol for 1 h. Samples were prepared for electrophoresis by the addition of 0.1 mg/mL bromophenol blue, 0.5 μg/mL ethidium bromide and 5 μL of 40% sucrose. Electrophoresis was carried out at 120V in 89 mM tris/borate buffer at pH 8 containing 2 mM EDTA and 0.5 μg/mL ethidium bromide. DNA was visualized using 302 nm trans-illumination, and was photographed using Polaroid type 55 film and a Wratten 3A filter.
After drug treatment, DNA is denatured to the single stranded form, which runs as a lower band in the gels (see lanes 1 and 2 in FIG. 1). Cross-linking by the drugs is evidenced by the appearance of increasing amounts of renatured, double stranded DNA, as shown by the upper band in the gels, corresponding to the band for untreated DNA seen in lane 1.

[11] = system: Saccharomyces cerevisiae strain D5; details: yeast strain D5, in words
[12] = 40 μg/plate, square brackets: toxicity becoming apparent
[13] = 80 μg/plate, square brackets: toxicity becoming apparent
[14] = AA8 cells, 18 h exposure, then 72 h growth, methylene blue, read-out: IC50
[15] = 120 μg/plate, square brackets: toxicity becoming apparent
[16] = P388 cells, 72 h, MTT, read-out: IC50
[17] = compound 4 versus compounds 2 and 3

SMILES: CN1CCN(c2ccc3nc(-c4ccc5nc(-c6ccc(N(C)CCCl)cc6)[nH]c5c4)[nH]c3c2)CC1 [Compound 1, 2-[2-[4-(N-methyl-N-(2-chloroethyl)amino)phenyl]-5-benzimidazolyl]-5-(1-methyl-4-piperazinyl)benzimidazole]
- IC50 ([1]; Cricetulus griseus, CHO-AA8): 5750 nM
- reversion colonies, TA102 ([2]; 4 μg/plate): 406 ± 20
- reversion colonies, TA102 ([2]; 10 μg/plate): 417 ± 26
- reversion colonies, TA102 ([2]; 20 μg/plate): 442 ± 62
- reversion colonies, TA102 [2, 12]: 442 ± 43
- Hypersensitivity factor [3]: 14
- Optimal dose ([4]; single i.p. dose): 30 mg/kg
- % Increase in lifespan [4]: 86%
- IC50 ([5]; Mus musculus, P388, 72 h): 500 nM
- reversion colonies, TA98 ([6]; 4 μg/plate): 70 ± 3
- reversion colonies, TA98 ([6]; 10 μg/plate): 62 ± 7
- reversion colonies, TA98 ([6]; 20 μg/plate): 67 ± 9
- reversion colonies, TA98 ([6]; 40 μg/plate): 52 ± 7
- reversion colonies, TA98 [6, 13]: 65 ± 3
- reversion colonies, TA100 ([7]; 4 μg/plate): 196 ± 23
- reversion colonies, TA100 ([7]; 10 μg/plate): 162 ± 21
- reversion colonies, TA100 ([7]; 20 μg/plate): 172 ± 13
- reversion colonies, TA100 ([7]; 40 μg/plate): 226 ± 23
- reversion colonies, TA100 ([7]; 80 μg/plate): 207 ± 12

SMILES: CN1CCN(c2ccc3nc(-c4ccc5nc(Cc6ccc(N(CCCl)CCCl)cc6)[nH]c5c4)[nH]c3c2)CC1 [Compound 3, 2-[2-[[4-(N,N-bis(2-chloroethyl)amino)phenyl]methyl]-5-benzimidazolyl]-5-(1-methyl-4-piperazinyl)benzimidazole]
- Site size (Number of nucleotide residues) [8]: 3.0 nucleotide residues
- IC50 [1, 14]: 1500 nM
- reversion colonies, TA102 ([2]; 4 μg/plate): 297 ± 38
- reversion colonies, TA102 ([2]; 10 μg/plate): 237 ± 64
- reversion colonies, TA102 ([2]; 20 μg/plate): 304 ± 16
- reversion colonies, TA102 [2, 12]: 268 ± 59
- reversion colonies, TA102 [2, 15]: 505 ± 121
- Rate constant for alkylation [9]: 3.01 × 10^4
- Hypersensitivity factor [3]: 59
- in vivo antitumour activity [4]: retained significant in vivo activity
- Optimal dose ([4]; single i.p. dose): 13.3 mg/kg
- % Increase in lifespan [4]: 71%
- IC50 [5, 16]: 850 nM
- reversion colonies, TA98 ([6]; 4 μg/plate): 71 ± 2
- reversion colonies, TA98 ([6]; 10 μg/plate): 83 ± 1
- reversion colonies, TA98 ([6]; 20 μg/plate): 87 ± 6
- reversion colonies, TA98 ([6]; 40 μg/plate): 86 ± 5
- reversion colonies, TA98 [6, 13]: 77 ± 10
- reversion colonies, TA98 [6, 15]: 86 ± 8
- reversion colonies, TA100 ([7]; 4 μg/plate): 154 ± 8
- reversion colonies, TA100 ([7]; 10 μg/plate): 130 ± 10
- reversion colonies, TA100 ([7]; 20 μg/plate): 137 ± 43
- reversion colonies, TA100 ([7]; 40 μg/plate): 167 ± 24
- reversion colonies, TA100 ([7]; 80 μg/plate): 167 ± 8
- reversion colonies, TA100 [7, 15]: 157 ± 12
- Cross-linking [10]: No

SMILES: CN1CCN(c2ccc3nc(-c4ccc5nc(CCc6ccc(N(CCCl)CCCl)cc6)[nH]c5c4)[nH]c3c2)CC1 [Compound 4, 2-[2-[2-[4-(N,N-bis(2-chloroethyl)amino)phenyl]ethyl]-5-benzimidazolyl]-5-(1-methyl-4-piperazinyl)benzimidazole]
- Site size (Number of nucleotide residues) [8]: 2.8 nucleotide residues
- IC50 [1, 14]: 330 nM
- increase in cytotoxicity in AA8 [1, 17]: 5 fold
- reversion colonies, TA102 ([2]; 4 μg/plate): 340 ± 26
- reversion colonies, TA102 ([2]; 10 μg/plate): 366 ± 49
- reversion colonies, TA102 ([2]; 20 μg/plate): 429 ± 17
- reversion colonies, TA102 [2, 12]: 465 ± 41
- reversion colonies, TA102 [2, 13]: 609 ± 74
- Rate constant for alkylation [9]: 4.62 × 10^4
- aberrant colonies in yeast [11]: some aberrant colonies
- mitotic crossing-over [11]: weak mitotic crossing-over
- Hypersensitivity factor [3]: 47
- in vivo antitumour activity [4]: retained significant in vivo activity
- Optimal dose ([4]; single i.p. dose): 3.9 mg/kg
- % Increase in lifespan [4]: 52%
- average number of animals in a group of six which were long-term survivors ([4]; single i.p. dose, optimal dose, group of six): 1 animals
- IC50 [5, 16]: 10 nM
- increase in cytotoxicity in P388 [5, 17]: 80 fold
- reversion colonies, TA98 ([6]; 4 μg/plate): 71 ± 2
- reversion colonies, TA98 ([6]; 10 μg/plate): 74 ± 10
- reversion colonies, TA98 ([6]; 20 μg/plate): 75 ± 1
- reversion colonies, TA98 ([6]; 40 μg/plate): 65 ± 6
- reversion colonies, TA100 ([7]; 4 μg/plate): 172 ± 4
- reversion colonies, TA100 ([7]; 10 μg/plate): 231 ± 7
- reversion colonies, TA100 ([7]; 20 μg/plate): 264 ± 12
- reversion colonies, TA100 ([7]; 40 μg/plate): 237 ± 29
- reversion colonies, TA100 ([7]; 80 μg/plate): 207 ± 10
- reversion colonies, TA100 [7, 15]: 232 ± 19
- mutagenicity in TA100 ([7]; statistical analysis): could be considered to show a mutagenic effect in TA100; also recorded: mutagenic ability
- Cross-linking [10]: No

SMILES: CCN(CCCl)c1ccc(CCCc2nc3ccc(-c4nc5ccc(N6CCN(C)CC6)cc5[nH]4)cc3[nH]2)cc1 [Compound 14]
- IC50 ([5]; Mus musculus, P388, 72 h): 740 nM

SMILES: CCN(CCCl)c1ccc(CCc2nc3ccc(-c4nc5ccc(N6CCN(C)CC6)cc5[nH]4)cc3[nH]2)cc1 [Compound 15, 2-[2-[2-[4-(N-Ethyl-N-(2-chloroethyl)amino)phenyl]ethyl]-5-benzimidazoyl]-5-(1-methyl-4-piperazinyl)benzimidazole]
- IC50 ([5]; Mus musculus, P388, 72 h): 120 nM
